Results published in publication PMC10730852 (Communications Biology, 2023).
Several values for one entry are separate records, joined by “and”; a condition that tells them apart may be missing. Identical values can stand only once. Like-named read-outs stand apart in the source and are kept apart here. Starred links: 1 amine or outer side, 2 acyl side, 3 side chain; linkers in the order of their positions; H or OH if unused. Positions of bridges follow the written chain, without caps; N, C: chain ends. Non-standard residues stand in square brackets, D forms with d. Residues, ends and D or L forms follow the SMILES beside them. *: point of attachment. X1 = NC1=N[C@@H]([C@H](N[*:1])C(=O)[*:2])C[C@H](O)N1; ΔAla(Z-3-ureido) = NC(=O)N/C=C(\N)C(=O)O; β3hOrn = NCCC[C@H](N)CC(=O)*; Dap = NC[C@H](N)C(=O)O

Assays:
[1] = system: Cph001; assay: Coupled enzyme assay and Michaelis-Menten kinetics of Cph001; format: biochemical, Streptosporangium roseum; set-up: initial velocity, Figure 3c iii, Triplicate: unit not given here; conditions: for initial velocity, Figure 3c iii, Triplicate / initial velocity, Figure 3c iv, Triplicate: 20 mM CMN IIA; for kcat, phosphate donor varied / Km: in the presence of saturating CMN IIA (20 mM), mean ± SEM, n = 3; for Km: read-out: apparent Km of the phosphate donor; for phosphorylation by Cph001 in couple enzyme assay: 2 mM antibiotic substrate, ATP as phosphate donor, absorbance at 340 nm; for absorbance at 340 nm, Average of triplicate: 2 mM substrate + ATP
Experimental: The phosphorylation reaction was measured by a coupled enzyme assay as following. […] The reactions were mixed well in a final volume of 200 μL in 96-well plates. The Cph001 activity was assayed by determining the oxidation of NADH at 340 nm. The reaction buffer and enzyme concentration of the Cph reaction was followed by previous study. The 340 nm absorbance changes were detected at 30 °C for every 1 min at a time in 15 min on an EPOCH Microplate Reader (BioTek). All reactions were carried out in triplicate.
The initial velocity data were plotted against substrate concentrations and fit the Michaelis-Menten equation. The Km and Vmax values were calculated based on the Michaelis-Menten equation. GraphPad Prism was used for statistical data analysis. All reactions were carried out in triplicate.

[2] = target: T1, Cph001 (Streptosporangium roseum, UniProt D2B3F1); assay: Isothermal titration calorimetry (ITC) analysis of Cph001; format: binding
T1 sequence (D2B3F1 1-286): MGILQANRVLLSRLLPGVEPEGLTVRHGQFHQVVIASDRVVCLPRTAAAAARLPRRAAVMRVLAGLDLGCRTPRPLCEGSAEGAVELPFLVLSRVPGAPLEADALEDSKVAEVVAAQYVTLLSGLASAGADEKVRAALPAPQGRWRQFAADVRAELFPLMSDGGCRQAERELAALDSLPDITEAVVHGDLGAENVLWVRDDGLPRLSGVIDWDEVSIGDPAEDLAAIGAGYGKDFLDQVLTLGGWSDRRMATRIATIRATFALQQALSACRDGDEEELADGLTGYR
Excerpt: The integrated heat areas constitute a differential binding curve that was fitted with a standard single-site binding model by Origin 7.

[3] = system: E. coli/cph001; assay: Disk diffusion assay; format: cell-based, E. coli BL21 Rosetta (DE3); conditions: for resistance in disk diffusion assay: E. coli harboring cph001; for zone of inhibition at 12.5 µg/disc / zone of inhibition at 50 µg/disc / zone of inhibition at 100 µg/disc / zone of inhibition at 200 µg/disc: Escherichia coli, 24 h, read-out: inhibition zones
Experimental: (§1) The E. coli BL21 Rosetta (DE3) strains containing pET22b, and its carrying cph, cph001, cph002, cph003, aph(3′)-Ia, and mphB plasmids were cultured overnight. The cells, respectively, were then diluted to 0.1 OD600 in molten LB agar with 100 μg/mL ampicillin and 500 μM IPTG for the disk diffusion assay. The cells with ampicillin and IPTG were mixed well with molten LB agar and then poured into 10 cm diameter Petri dishes. The 7 mm disks were placed onto the LB agar and gently loaded with varying quantities of CMN IIA, CMN IIB, VIO, Kan, and Ery, ranging from 0 to 200 μg. The Petri dishes were placed in the incubator at 37 °C and the inhibition zones were observed after 24 hr.

[4] = system: E. coli/cph; assay: Disk diffusion assay; format: cell-based, E. coli BL21 Rosetta (DE3); conditions: Escherichia coli, 24 h, read-out: inhibition zones
Experimental: as §1

[5] = system: E. coli/pET-22b (Control); assay: Disk diffusion assay; format: cell-based, E. coli BL21 Rosetta (DE3); conditions: Escherichia coli, 37 °C, 24 hr, read-out: inhibition zones; for zone of inhibition at 12.5 µg/disc: 12.5 μg on disk; for zone of inhibition at 50 µg/disc: 50 μg on disk; for zone of inhibition at 100 µg/disc: 100 μg on disk; for zone of inhibition at 200 µg/disc: 200 μg on disk
Experimental: as §1, with “The 7 mm disks were placed onto the LB agar and gently loaded with varying quantities of CMN IIA, CMN IIB, VIO, Kan, and Ery, ranging from 0 to 200 μg.” left out

[6] = target: Cph; set-up: method as in ACS Chem. Biol. 17, 138, 2022; conditions: ITC; ref ACS Chem. Biol. 17, 138, 2022; read-out: KD values for Cph interaction; cited from earlier work
[7] = set-up: method as in earlier work; conditions: ref Antimicrob. Agents Chemother. 60, 4786, 2016 and Antimicrob. Agents Chemother. 62, e01724, 2018, cited from earlier work
[8] = system: E. coli/mphB; assay: Disk diffusion assay; format: cell-based, E. coli BL21 Rosetta (DE3); conditions: Escherichia coli, 24 h, read-out: inhibition zones
Experimental: as §1

Nc1ncnc2c1ncn2C1OC(COP(=O)(O)OP(=O)(O)OP(=O)(O)O)C(O)C1O (centres unmarked) [ATP]
initial velocity, Figure 3c iii, Triplicate ([1]; 0.01 mM ATP): 0.0001332 and 0.000121 and 0.0001197
initial velocity, Figure 3c iii, Triplicate ([1]; 0.02 mM ATP): 0.0001161 and 0.0001344 and 0.0001332
initial velocity, Figure 3c iii, Triplicate ([1]; 0.05 mM ATP): 0.0002407 and 0.0001564 and 0.0001833
initial velocity, Figure 3c iii, Triplicate ([1]; 0.1 mM ATP): 0.0002407 and 0.0002053 and 0.0001552
initial velocity, Figure 3c iii, Triplicate ([1]; 0.2 mM ATP): 0.0003336 and 0.0003519 and 0.0003385
initial velocity, Figure 3c iii, Triplicate ([1]; 0.4 mM ATP): 0.0003201 and 0.0003715 and 0.0003678
initial velocity, Figure 3c iii, Triplicate ([1]; 0.6 mM ATP): 0.0004387 and 0.0003983
initial velocity, Figure 3c iii, Triplicate ([1]; 0.8 mM ATP): 0.0003825 and 0.0004668 and 0.0004985
kcat, phosphate donor varied [1]: 0.00967 ± 0.0005 s⁻¹
Km [1]: 70 ± 20 µM

NCCC[C@H](N)CC(=O)N[C@H]1CNC(=O)[C@H]([C@H]2C[C@H](O)NC(N)=N2)NC(=O)/C(=C/NC(N)=O)NC(=O)[C@H](CO)NC(=O)[C@H](CO)NC1=O [VIO, viomycin] (β3hOrn-[Dap]SS[ΔAla(Z-3-ureido)][X1]; lactam 1-C)
Kd [2]: 4.18 ± 0.68 µM
phosphorylation by Cph001 in couple enzyme assay [1]: only capable of phosphorylating VIO
absorbance at 340 nm, Average of triplicate ([1]; time 00:00:00): 1.495
absorbance at 340 nm, Average of triplicate ([1]; time 00:01:00): 1.515
absorbance at 340 nm, Average of triplicate ([1]; time 00:02:00): 1.474
absorbance at 340 nm, Average of triplicate ([1]; time 00:03:00): 1.3778
absorbance at 340 nm, Average of triplicate ([1]; time 00:04:00): 1.2968
absorbance at 340 nm, Average of triplicate ([1]; time 00:05:00): 1.217
absorbance at 340 nm, Average of triplicate ([1]; time 00:06:00): 1.012
absorbance at 340 nm, Average of triplicate ([1]; time 00:07:00): 0.8175
absorbance at 340 nm, Average of triplicate ([1]; time 00:08:00): 0.6031
absorbance at 340 nm, Average of triplicate ([1]; time 00:09:00): 0.4177
absorbance at 340 nm, Average of triplicate ([1]; time 00:10:00): 0.2691
absorbance at 340 nm, Average of triplicate ([1]; time 00:11:00): 0.254
absorbance at 340 nm, Average of triplicate ([1]; time 00:12:00): 0.2155
absorbance at 340 nm, Average of triplicate ([1]; time 00:13:00): 0.1675
absorbance at 340 nm, Average of triplicate ([1]; time 00:14:00): 0.1401
absorbance at 340 nm, Average of triplicate ([1]; time 00:15:00): 0.1225
resistance in disk diffusion assay [3]: resistant
zone of inhibition at 12.5 µg/disc [3]: 8 mm
zone of inhibition at 50 µg/disc [3]: 12 mm
zone of inhibition at 100 µg/disc [3]: 15 mm
zone of inhibition at 200 µg/disc [3]: 17.5 mm
zone of inhibition at 12.5 µg/disc [4]: 8.5 mm
zone of inhibition at 50 µg/disc [4]: 10 mm
zone of inhibition at 100 µg/disc [4]: 11 mm
zone of inhibition at 200 µg/disc [4]: 12 mm
zone of inhibition at 12.5 µg/disc [5]: 23.5 mm
zone of inhibition at 50 µg/disc [5]: 27 mm
zone of inhibition at 100 µg/disc [5]: 29 mm
zone of inhibition at 200 µg/disc [5]: 30 mm

Nc1nc2c(ncn2[C@@H]2O[C@H](COP(=O)(O)OP(=O)(O)OP(=O)(O)O)[C@@H](O)[C@H]2O)c(=O)[nH]1 [GTP]
initial velocity, Figure 3c iv, Triplicate ([1]; 0.02 mM GTP): 9.164e-5 and 7.331e-5 and 0.0001283
initial velocity, Figure 3c iv, Triplicate ([1]; 0.05 mM GTP): 9.164e-5 and 0.0001521 and 0.0001466
initial velocity, Figure 3c iv, Triplicate ([1]; 0.1 mM GTP): 0.0002053 and 0.0001576 and 0.0002218
initial velocity, Figure 3c iv, Triplicate ([1]; 0.2 mM GTP): 0.0003519 and 0.0003501 and 0.0003886
initial velocity, Figure 3c iv, Triplicate ([1]; 0.4 mM GTP): 0.0005242 and 0.0006232 and 0.0004326
initial velocity, Figure 3c iv, Triplicate ([1]; 0.6 mM GTP): 0.0006012 and 0.0005554 and 0.000493
initial velocity, Figure 3c iv, Triplicate ([1]; 1 mM GTP): 0.0006525 and 0.0006232 and 0.000592
initial velocity, Figure 3c iv, Triplicate ([1]; 2 mM GTP): 0.0006287 and 0.0006397 and 0.0005095
kcat, phosphate donor varied [1]: 0.0152 ± 0.00067 s⁻¹
Km [1]: 180 ± 30 µM

NC[C@H]1O[C@H](O[C@H]2[C@H](O)[C@@H](O[C@H]3O[C@H](CO)[C@@H](O)[C@H](N)[C@H]3O)[C@H](N)C[C@@H]2N)[C@H](O)[C@@H](O)[C@@H]1O [Kan, kanamycin]
phosphorylation by Cph001 in couple enzyme assay [1]: only capable of phosphorylating VIO

C[C@@H]1NC(=O)[C@@H](N)CNC(=O)[C@H](C2CCNC(=N)N2)NC(=O)/C(=C/NC(N)=O)NC(=O)[C@H](CNC(=O)C[C@@H](N)CCCN)NC1=O (some centres unmarked) [CMN IIB]
Kd [2]: 55.2 ± 4.4 µM
phosphorylation by Cph001 in couple enzyme assay [1]: incapable of phosphorylating
resistance in disk diffusion assay [3]: capable of endowing E. coli with resistance
zone of inhibition at 12.5 µg/disc [3]: 11 mm
zone of inhibition at 50 µg/disc [3]: 14 mm
zone of inhibition at 100 µg/disc [3]: 16 mm
zone of inhibition at 200 µg/disc [3]: 17.5 mm
zone of inhibition at 50 µg/disc [4]: 12 mm
zone of inhibition at 100 µg/disc [4]: 14 mm
zone of inhibition at 200 µg/disc [4]: 16 mm
Kd [6]: 5.48 µM
zone of inhibition at 12.5 µg/disc [5]: 17 mm
zone of inhibition at 50 µg/disc [5]: 23 mm
zone of inhibition at 100 µg/disc [5]: 25 mm
zone of inhibition at 200 µg/disc [5]: 27 mm

capreomycin
MIC ([7]; approximate molar equivalent): 1.5 to 4.5 µM
MIC [7]: 1 to 3 µg/mL

CC[C@H]1OC(=O)[C@H](C)[C@@H](O[C@H]2C[C@@](C)(OC)[C@@H](O)[C@H](C)O2)[C@H](C)[C@@H](O[C@@H]2O[C@H](C)C[C@H](N(C)C)[C@H]2O)[C@](C)(O)C[C@@H](C)C(=O)[C@H](C)[C@@H](O)[C@]1(C)O [Ery, erythromycin]
phosphorylation by Cph001 in couple enzyme assay [1]: only capable of phosphorylating VIO
zone of inhibition at 12.5 µg/disc [3]: 23 mm
zone of inhibition at 200 µg/disc [3]: 32 mm
zone of inhibition at 12.5 µg/disc [8]: 15.5 mm
zone of inhibition at 50 µg/disc [8]: 21.5 mm
zone of inhibition at 100 µg/disc [8]: 23 mm
zone of inhibition at 200 µg/disc [8]: 24 mm
zone of inhibition at 12.5 µg/disc [5]: 24 mm
zone of inhibition at 50 µg/disc [5]: 27 mm
zone of inhibition at 100 µg/disc [5]: 29 mm
zone of inhibition at 200 µg/disc [5]: 31 mm
